Consider three substances from patent publication US9765114B2, “Method for cancer immunotherapy” (International Institute of Cancer Immunology, Inc., priority 2005, dated 2017).

No end group written: not given here.

The subject of one experiment is HLA-A24. The following applies: HLA-A24-restricted manner; cited from earlier work.
The subject of the next experiment is HLA-A24 antigen. The following applies: compared with the wild type peptide; cited from earlier work.
The next experiment relates to splenocytes. The experiment is described as follows: Immunization of a mouse (2), mouse IFN gamma ELISPOT of splenocytes. Format: in vivo, HLA-A2402/K^b transgenic mouse. Particulars: splenocytes 7 days after immunization; peptides added at 10^-6 M, 18 hours; FIG. 8. As to the method: The peptide of Example 1 was adjusted to 40 mg/ml in DMSO. Then, the solution (32.5 μl) was mixed with water for injection (540 μl). Further, the resulting solution (550 μl) was mixed with Freund's incomplete adjuvant (700 μl) (Montanide ISA51 (registered trademark)) (SEPPIC, Inc, Paris, France) using a glass syringe to prepare water-in-oil emulsion.
The resulting preparation (200 μl) was injected into an HLA-A2402/K^b transgenic mouse intradermally in the base of the tail for immunization. 7 days after initiation of the experiment, spleen was removed and splenocytes were prepared in a conventional manner (WO 02/47474). Then, tests were conducted using mouse IFN gamma ELISPOT set (Enzyme—Linked Immunospot) (Fujisawa, catalog No. BD-551083). The test was conducted according to the instructions attached to the set.
According to the attached instructions, the plate was washed and the number of spots was detected using KS Elispot Research System (Carl Zeiss). Elispot method is known as an alternative to a test for cytotoxic activity (J. Immunological Methods, 1995, 181, 45-54).

The test system of experiment [1] is HLA-A2402 expressing VA13/A2402 cells pulsed with or without peptide. The experiment is described as follows: Test using human PBMC: IFN-γ ELISA of peptide-stimulated CD8 positive T cells. Format: cell-based. Particulars: Day 21 T cells, FIG. 9. As for the experimental part:
Peripheral blood (50 ml) was taken using heparinized vacuum blood collection tube from HLA-A24 positive healthy subjects. The blood diluted two fold with PBS (−) was overlayered on Ficoll-Paque (Amersham Biosciences), the amount of which was half of the amount of the blood, followed by centrifugation for 20 minutes at 2000 rpm. A cell layer containing the peripheral blood mononuclear cells (PBMC) was collected and 3-4 times the amount of PBS (−) was added thereto, followed by centrifugation for 10 minutes at 1800 rpm. The cell pellet was washed twice with PBS (−) and PMBC was collected.
The PMBC was suspended in medium for culturing lymphocyte (RPMI1640: AIM V=1:1, NEAA, 10% FCS) and cultured in a culture flask for two hours and nonadherent cells were collected. Using CD8^+ T cell isolation kit II (Miltenyi Biotec), CD8 positive T cells were collected among the nonadherent cells. The adherent cells were cultured in the medium for culturing lymphocyte containing GM-CSF (1000 U/ml) and IL-4 (1000 U/ml) for 7 days. The floating cells were collected as an antigen-presenting cell fraction containing dendritic cells (DC). The collected cells were frozen for preservation until they are used for experiments.
The DC fraction prepared as above was pulsed with the peptide of Example 1 (50 μg/ml) by incubating the cells with the peptide in AIM-V medium containing mitomycin (50 μg/ml) for one hour. After washing with the medium three times, the peptide of Example 1 was further added (50 μg/ml) for one hour pulse to prepare antigen-presenting cells. On Day 0, antigen-presenting cells pulsed with the peptide were added to CD8 positive T cells to conduct the first stimulation, and the cell culture was started in medium for culturing lymphocyte containing IL-7 (10 ng/ml) using 24-well plate. On Day 7, T cells were collected and after washing them, peptide stimulation using antigen-presenting cells pulsed with the peptide was conducted in a similar way to the first stimulation. On the next day (Day 8), IL-2 was added so that the concentration was 50 U/ml. On Day 14, T cells were collected and the third stimulation was conducted in a similar way to the first or second stimulation. On the next day (Day 15), IL-2 was added so that the concentration was 50 U/ml. On Day 21, T cells were collected and frozen for preservation.
1×10^5 cells of T cells of Day 21 were added to 2×10^4 cells of HLA-A2402 expressing VA13/A2402 cells pulsed with or without each of the peptides (wild type peptide (WT1235-243), modified peptide (WT1235-243(2M→Y)) or the peptide of Example 1) and 18 hours later, the supernatant was collected to determine the amount of IFN-γ using ELISA.
The results of the peptide specific reactivity of T cells stimulated with the synthetic peptide of Example 1 were shown in FIG. 9. […]
For orientation: In an ELISA, binding on a coated surface is turned into a signal by an enzyme label.

In the case of “CMTWNQMNL [WT1235-243, peptide spanning positions 235 to 243 of the cancer antigen protein WT1]”, the “activity to induce CTLs” value in the experiment on HLA-A24 was “having an activity to induce CTLs in HLA-A24-restricted manner”.
Consider CYTWNQMNL [WT1235-243 (2M→Y)], for which the “binding affinity for the HLA-A24 antigen” value with HLA-A24 antigen is “higher binding affinity for the HLA-A24 antigen than the wild type peptide”.
Regarding “H-Cys(H-Cys-OH)-Tyr-Thr-Trp-Asn-Gln-Met-Asn-Leu-OH (H-C(Cys)YTWNQMNL-OH; also: Cys1 disulfide-linked to a free Cys-OH (cystine)) [Example 1, derivative of WT1235-243 (2M→Y) modified with cystine]”, the “HLA-A24 specific cell-mediated immunity, IFN gamma ELISPOT spots” value in the experiment with splenocytes is “could induce HLA-A24 specific cell-mediated immunity which cross reacted with the wild type peptide”. In experiment [1] (VA13/A2402 cells not pulsed, 18 hours), the “reactivity (IFN-γ) of T cells stimulated with the peptide to cells pulsed without the peptide” value is on record as “did not react”. Further, the “reactivity (IFN-γ) of T cells stimulated with the peptide to cells pulsed with the modified peptide (WT1235-243 (2M→Y))” value in experiment [1] (VA13/A2402 cells pulsed with WT1235-243 (2M→Y), 18 hours) was “reacted”. In addition, the “reactivity (IFN-γ) of T cells stimulated with the peptide to cells pulsed with the wild type peptide (WT1235-243)” value in experiment [1] (VA13/A2402 cells pulsed with WT1235-243, 18 hours) is reported as “reacted”. Besides, in experiment [1] (VA13/A2402 cells pulsed with the peptide of Example 1, 18 hours), the “reactivity (IFN-γ) of T cells stimulated with the peptide to cells pulsed with the peptide of Example 1” value is given as “sufficiently reacted”.
